Reference: patent US10189794B2, “Heteroaryl compounds and uses thereof” (Celgene CAR LLC, priority 2013, dated 2019)
Like-named read-outs stand apart in the source and are kept apart here.

Columns and labels:
FGFR4-WT = FGFR4-WT (Homo sapiens (Human), UniProt P22455); test: Omnia assay for potency assessment against FGFR4 enzyme; format: biochemical; settings: read-out: FGFR4 IC50
Method: A 10× stock solution of FGFR4-WT (PR4380C), (from Invitrogen, Carlsbad, Calif.) corresponding to method a in Table 7, was prepared as described below. Alternatively, a 10× stock solution of FGFR4-WT (F01-11G), (SignalChem, Richmond, BC) corresponding to method b in Table 7, was prepared as described below. A solution of 1.4×ATP (AS001A) and 5×Tyr-Sox conjugated peptide substrate (KNZ3101) were prepared in IX kinase reaction buffer consisting of 20 mM Tris, pH 7.5, 5 mM MgCl2, 1 mM EGTA, 5 mM β-glycerophosphate, 5% glycerol (10× stock, KB002A) and 0.2 mM DTT (DS001A). […] The serially diluted compounds were prepared on a Tecan EVO100. A second addition of 10 μl of Tyr-Sox FGFR4 substrate was added to each well and the kinase reactions were started with the addition of 35 μL of 1.4×ATP. The reactions were monitored every 71 seconds for 240 minutes at λex360/λem485 in a Synergy plate reader from BioTek (Winooski, Vt.).

Huh7 cells = test: Cell proliferation, Huh7 (CellTiter Glo); format: cell-based; settings: Homo sapiens, Huh-7; Huh7; 120 hr; read-out: Cell Proliferation GI50 (nM) HUH
Method: The growth inhibition (GI50) values were determined by Graph Pad Prism.

MDA-MB-453 cells = test: Cell proliferation, MDA-MB-453 (CellTiter Glo); format: cell-based; settings: Homo sapiens; MDA-MB-453; 96 hr; read-out: Cell Proliferation GI50 (nM) MDA
Method: For both MDA-MB-453 and Huh7 cells the starting density was 5000 cells per well. The cells were allowed to settle down for 4 hr and were then treated with 5, 1.25, 0.31, 0.078, 0.020 or 0.005 μM of test compound for: 96 hr for MDA-MB-453 and 120 hr for Huh7 cells. Cell viability was determined by CellTiter Glo (Promega, Madison, Wis.) and the results were converted to cell numbers using a standard curve. The growth inhibition (GI50) values were determined by Graph Pad Prism.
The results of these experiments show the ability of compounds to inhibit cell growth in FGFR dependant cell lines and are depicted in Table 8, in the columns titled “Cell Proliferation GI50 (nM)”. MDA-MB-453 cell results fall under the heading “MDA” and Huh7 cell results fall under the heading “Huh.”

[1] = target: FGFR4 in MDA-MB-453 cells (Homo sapiens (Human), UniProt P22455, Y367C); test: Target occupancy assay with biotinylated covalent probe I-127; format: cell-based; settings: MDA-MB-453 lysate; 2 μM biotinylated probe I-127
Sequence of FGFR4 in MDA-MB-453 cells (P22455 22-802 Y367C): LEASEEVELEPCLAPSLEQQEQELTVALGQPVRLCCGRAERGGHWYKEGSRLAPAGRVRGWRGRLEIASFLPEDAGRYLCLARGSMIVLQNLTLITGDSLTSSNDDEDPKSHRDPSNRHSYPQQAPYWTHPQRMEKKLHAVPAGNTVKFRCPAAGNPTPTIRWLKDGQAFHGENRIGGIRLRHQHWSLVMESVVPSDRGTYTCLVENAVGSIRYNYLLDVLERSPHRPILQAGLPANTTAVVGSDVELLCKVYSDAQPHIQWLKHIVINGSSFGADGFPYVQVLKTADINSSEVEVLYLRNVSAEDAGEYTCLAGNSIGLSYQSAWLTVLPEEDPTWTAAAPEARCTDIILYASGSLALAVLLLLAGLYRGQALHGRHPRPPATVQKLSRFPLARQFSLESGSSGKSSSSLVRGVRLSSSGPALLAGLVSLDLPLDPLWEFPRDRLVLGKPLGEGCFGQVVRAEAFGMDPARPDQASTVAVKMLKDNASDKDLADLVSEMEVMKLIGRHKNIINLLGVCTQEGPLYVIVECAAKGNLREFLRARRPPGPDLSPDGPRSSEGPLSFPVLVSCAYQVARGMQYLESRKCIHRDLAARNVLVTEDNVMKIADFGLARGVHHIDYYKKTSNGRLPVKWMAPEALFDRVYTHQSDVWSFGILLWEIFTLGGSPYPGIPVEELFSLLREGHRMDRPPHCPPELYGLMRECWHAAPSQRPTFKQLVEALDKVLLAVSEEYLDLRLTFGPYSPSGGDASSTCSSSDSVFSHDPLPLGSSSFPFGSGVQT
Method: In order to assess free FGFR4 protein a biotinylated covalent probe was utilized. […] The reaction was incubated for 2 hr at room temperature. The samples and probe mixture were transferred to a FGFR4-coated MSD plate for 2 hr at room temperature. MSD signals were obtained with an anti-streptavidin Sulfo-tag (Meso Scale) antibody for 1 hr at room temperature.
If a compound completely (100%) covalently modies FGFR4 no free FGFR4 should be available for covalent modification by the biotinylated probe and subsequent binding to streptavidin and detection.

[2] = method a: Invitrogen FGFR4-WT 10 nM, ATP 300 uM, Y10-Sox 10 uM

Sequence of FGFR4-WT (P22455 22-802): as the sequence (P22455 22-802 Y367C) above, with C346Y counted along it

| GI50 (Huh7 cells) | GI50 (MDA-MB-453 cells) | EC50 [1] | Compound | IC50 (FGFR4-WT; [2]) | further results |
| --- | --- | --- | --- | --- | --- |
| – | – | – | C=CC(=O)N[C@@H]1CCCC[C@@H]1Nc1ncc2c(n1)N(Cc1cscn1)C(=O)N(c1c(Cl)c(OC)cc(OC)c1Cl)C2 [I-119] | – | IC50 (FGFR4-WT): > 1 µM |
| – | – | – | C=CC(=O)N[C@H]1CCCC[C@H]1Nc1ncc2c(n1)N(Cc1cnn(C)c1)C(=O)N(c1c(Cl)c(OC)cc(OC)c1Cl)C2 [I-148] | < 0.1 µM | – |
| – | – | – | C=CC(=O)NC1CCCC1Nc1ncc2c(n1)N(C)C(=O)N(c1c(Cl)c(OC)cc(OC)c1Cl)C2 (racemic) [I-112] | < 0.1 µM | – |
| > 1000 nM | 101 to 500 nM | 0.101 to 0.5 µM | C=CC(=O)Nc1ccccc1Nc1ncc2c(n1)N(Cc1cccnc1)C(=O)N(c1cc(OC)cc(OC)c1)C2 [I-44] | – | – |
| – | – | – | C=CC(=O)Nc1ccccc1Nc1ncc2c(n1)N(Cc1cccc(OC)c1)C(=O)N(c1c(Cl)c(OC)cc(OC)c1Cl)C2 [I-28] | < 0.1 µM | – |
| – | – | – | C=CC(=O)Nc1ccccc1Nc1ncc2cc(-c3cc(OC)cc(OC)c3)c(N)nc2n1 [I-155] | < 0.1 µM | – |
| 101 to 500 nM | < 100 nM | < 0.1 µM | C=CC(=O)NC1COCC1Nc1ncc2c(n1)N(C)C(=O)N(c1c(Cl)c(OC)cc(OC)c1Cl)C2 (stereo not drawn) [I-126] | – | – |
| – | – | – | C=CC(=O)NC1CCCCC1Nc1ncc2c(n1)N(Cc1cccc(NS(C)(=O)=O)c1)C(=O)N(c1c(Cl)c(OC)cc(OC)c1Cl)C2 (racemic) [I-89] | < 0.1 µM | – |
| 501 to 999 nM | < 100 nM | < 0.1 µM | C=CC(=O)Nc1cc(N2CCN(CCOC)CC2)ccc1Nc1ncc2c(n1)N(Cc1cccc(NC(=O)CC)c1)C(=O)N(c1cc(OC)cc(OC)c1)C2 [I-9] | – | – |
| 501 to 999 nM | 101 to 500 nM | 0.101 to 0.5 µM | C=CC(=O)Nc1cc(N(C)CCOC)ccc1Nc1ncc2c(n1)N(C)C(=O)N(c1cc(OC)cc(OC)c1)C2 [I-21] | – | – |
| 501 to 999 nM | 101 to 500 nM | – | C=CC(=O)Nc1ccccc1Nc1ncc2c(n1)N(CCF)C(=O)N(c1cc(OC)cc(OC)c1Cl)C2 [I-110] | – | – |
| – | – | – | C=CC(=O)N[C@H]1CCCC[C@H]1Nc1ncc2c(n1)N(C)C(=O)N(c1c(Cl)c(OC)c(OC)c(OC)c1Cl)C2 [I-221] | > 1 µM | – |
| – | < 100 nM | 0.101 to 0.5 µM | C=CC(=O)Nc1cc(N2CCN(CC)CC2)ccc1Nc1ncc2c(n1)N(C)C(=O)N(c1cc(OC)cc(OC)c1)C2 [I-15] | – | – |
| – | < 100 nM | 0.101 to 0.5 µM | C=CC(=O)Nc1cc(N2CCN(CCOC)CC2)ccc1Nc1ncc2c(n1)N(C)C(=O)N(c1cc(OC)cc(OC)c1)C2 [I-20] | – | – |
| – | – | – | C=CC(=O)NC1CCCCC1Nc1ncc2c(n1)N(C)C(=O)N(c1cc(OC)cc(OC)c1)C2 (racemic) [I-18] | – | IC50 (FGFR4-WT; method b: SignalChem FGFR4-WT 2.5 nM, ATP 250 uM, Y10-Sox 10 uM): > 1 µM |
| 101 to 500 nM | < 100 nM | – | C=CC(=O)Nc1cc(C(F)(F)F)ccc1Nc1ncc2c(n1)N(Cc1ccccc1)C(=O)N(c1c(Cl)c(OC)cc(OC)c1Cl)C2 [I-6] | – | – |
| < 100 nM | < 100 nM | < 0.1 µM | C=CC(=O)Nc1ccccc1Nc1ncc2c(n1)N(Cc1cccc(N)c1)C(=O)N(c1c(Cl)c(OC)cc(OC)c1Cl)C2 [I-26] | – | – |
| > 1000 nM | 101 to 500 nM | 0.101 to 0.5 µM | C=CC(=O)Nc1cc(N(C)CCOC)ccc1Nc1ncc2c(n1)N(Cc1ccccc1)C(=O)N(c1cc(OC)cc(OC)c1)C2 [I-13] | – | – |
| – | – | > 1 µM | CCC(=O)Nc1ccccc1Nc1ncc2c(n1)N(Cc1ccccc1)C(=O)N(c1c(Cl)c(OC)cc(OC)c1Cl)C2 [I-236] | – | – |
| – | – | – | C=CC(=O)N(C)C1CCCCC1Nc1ncc2c(n1)N(C)C(=O)N(c1cc(OC)cc(OC)c1)C2 (racemic) [I-39] | > 1 µM | – |
| – | 101 to 500 nM | 0.101 to 0.5 µM | C=CC(=O)Nc1cc(N2CCOCC2)ccc1Nc1ncc2c(n1)N(C)C(=O)N(c1cc(OC)cc(OC)c1)C2 [I-17] | – | – |
| 501 to 999 nM | 101 to 500 nM | – | C=CC(=O)NC1CCCCC1Nc1ncc2c(n1)N(C)C(=O)N(c1c(Cl)c(OC)cc(OC)c1Cl)C2 (racemic) [I-19] | – | – |

| Compound | GI50 (Huh7 cells) | GI50 (MDA-MB-453 cells) | EC50 [1] | IC50 (FGFR4-WT; [2]) | further results |
| --- | --- | --- | --- | --- | --- |
| C=CC(=O)NC1CC=CCC1Nc1ncc2c(n1)N(C)C(=O)N(c1c(Cl)c(OC)cc(OC)c1Cl)C2 (racemic) [I-113] | 501 to 999 nM | – | – | < 0.1 µM | – |
